From patent publication EP0053015A1, “1-Phenylthio-2-aminopropane derivatives, their production and use” (Takeda Chemical Industries, Ltd., priority 1980, dated 1982)
Counter-ions that a name gives are not always drawn. Like-named read-outs stand apart in the source and are kept apart here.

What was measured:
Format in all cases: in vivo
[1] = Suppression of food intake in mice; conditions: Mus musculus, male ICR mice, 50 mg/kg oral, given 0.5 hour before feeding, food intake of control animals = 100%, (NS) = not statistically significant
Method: Male ICR mice, 7 weeks old, were acclimatised to six-hours-a-day feeding (CE-2 powder, Clea Japan) for 7 days and those animals showing a constant food intake were used in groups of 6 individuals. Each test compound was dissolved in a 5% aqueous solution of gum arabic and orally administered to mice at a dose level of 50 mg/kg as compound (I) at 0.5 hour before feeding on the 8th day. Control animals received a 5% solution of gum arabic only. Each figure in the table is the percent food intake with the food intake of control animals being taken as 100%.
In the table, the figures accompanied by NS in parentheses mean that the difference from control was not statistically significant. All other figures were significant at from P<0.02 to P<0.001.

[2] = Suppression of food intake in rats; conditions: male Sprague-Dawley rats fasted for 24 hours, 20 mg/kg by oral gavage, food given after 0.5 hour; control = 100%; ** P<0.01, * P<0.05
Method: Male 7-week-old rats of Sprague-Dawley strain were fasted for 24 hours and assigned to groups of 6 animals. A solution of .20 mg/kg of each test compound in distilled water was administered by oral gavage and after 0.5 hour, food (CE-2 powder) was given. The food intake in each group was measured at 1 hour and 2 hours thereafter and the results were compared with the food intake of control animals given distilled water only. The figures in the table denote the food intake percents, with the food intake of control animals being taken as 100%. By the term "gavage" is meant compulsory feeding.

[3] = tested on: fatty acid synthesis; experiment: Inhibition of fatty acid synthesis (glucose-U-14C incorporation into fatty acid fractions); conditions: Rattus norvegicus, Sprague-Dawley rats, 20 mg/kg oral, glucose-U-14C 30 minutes later, sacrificed after 60 minutes, versus distilled water control
Method: Male 7-week-old Sprague-Dawley rats were acclimatised to 2-hours-a-day feeding (CE-2 powder, Clea Japan) for 10 days and assigned to groups of 5 animals. The animals were orally given 20 mg/kg of l-(4-chlorophenylthio)-2-methylaminopropane fumarate as dissolved in distilled water, and,30 minutes thereafter, glucose-U-^14C (85 pCi/3 g/kg) was orally administered. After 60 minutes, each animal was sacrificed and the radioactivities incorporated into the fatty acid fractions of the liver and the epididymal adipose tissues were determined.

[4] = Inventors' study of antiobesity, antidiabetic and anorectic effect of prior-art compounds; conditions: according to the inventors' study; result in words
Excerpt: South African Patent No. 67/3108 describes the anti- depressive activity of 1-(4-chlorophenylthio)-2-aminopropane of the formula: [drawing 8] but this patent also says nothing about antiobesity or antidiabetic action. […] In contrast, the compounds of this invention exert strong and long-lasting antiobesity and antidiabetic effects because of their having the particular substituent (halogen) at the particular (para) position of the benzene ring and having the particular secondary amine-type structure.

[5] = 1 h, read-out: Food intake (%) 1 hour after administration
[6] = read-out: Food intake (%) 0.5 hour after administration

| SMILES | response vs control in vivo at 50 mg/kg [1, 5] [%] | response vs control in vivo at 50 mg/kg [1, 6] [%] | Food intake (%) 1 hour after administration [2] | Food intake (%) 2 hours after administration [2] | inhibition at 20 mg/kg ([3]; adipose tissues, read-out: relative inhibition rate, radioactivity incorporated into the fatty acid fraction of the epididymal adipose tissues) [%] | inhibition at 20 mg/kg ([3]; liver, read-out: relative inhibition rate, radioactivity incorporated into the fatty acid fraction of the liver) [%] | anorectic effect [4] |
| --- | --- | --- | --- | --- | --- | --- | --- |
| CNC(C)CSc1ccc(Cl)cc1.O=C(O)/C=C/C(=O)O (centres unmarked) [Example 1, 1-(4-chlorophenylthio)-2-methylaminopropane fumarate] | 55.2 | 43.2 | 43.9* % | 61.9** % | 58.8 | 46.6 | – |
| CCNC(C)CSc1ccc(Cl)cc1 (centres unmarked) [Example 3, 1-(4-chlorophenylthio)-2-ethylaminopropane fumarate] | 69.4 | 40.7 | – | – | – | – | – |
| CNC(C)CSc1ccccc1 (centres unmarked) [1-phenylthio-2-methyl-aminopropane, reference compound] | 112 | 106 | – | – | – | – | – |
| CC(N)CSc1ccc(Cl)cc1 (centres unmarked) [1-(4-chlorophenylthio)-2-aminopropane, reference compound] | 85.5 | 69.5 | – | – | – | – | only a weak transient anorectic effect |
| CNC(C)CSc1ccc(F)cc1 (centres unmarked) [Example 5, 1-(4-fluorophenylthio)-2-methylaminopropane] | 66.5 | 57.9 | – | – | – | – | – |
| CN[C@@H](C)CSc1ccc(Cl)cc1 [Example 8, (S)-l-(4-chlorophenylthio)-2-methylaminopropane fumarate] | – | – | 38.8** % | 56.1** % | – | – | – |
| CNC(C)CSc1ccc(Cl)c(Cl)c1 (racemic) [Example 7, l-(3,4-dichlorophenylthio)-2-methylamino-propane] | 63.2 | 54.9 | – | – | – | – | – |
| CC(CSc1ccc(Cl)cc1)NCCO (centres unmarked) [Example 4, 1-(4-chlorophenylthio)-2-(2-hydroxyethylamino)propane fumarate] | 67.6 | 65.9 | – | – | – | – | – |
| CNC(C)CSc1ccc(Br)cc1 (centres unmarked) [Example 6, 1-(4-bromophenylthio)-2-methylamino-propane] | 72.1 | 70.8 | – | – | – | – | – |
